Data set [1] in a line: Toxicity in OVX-induced osteoporosis C57BL/6 mouse model assessed as pathological change in lung at 10 mg/kg, po administered every other day for 8 weeks by H and E staining based analysis. It counts as organism-based. Particulars: in vivo, 1344 h.
Data set [2] has as its target T1, Tumor necrosis factor ligand superfamily member 11 (Homo sapiens) (UniProt O14788).
T1 sequence (whole entry): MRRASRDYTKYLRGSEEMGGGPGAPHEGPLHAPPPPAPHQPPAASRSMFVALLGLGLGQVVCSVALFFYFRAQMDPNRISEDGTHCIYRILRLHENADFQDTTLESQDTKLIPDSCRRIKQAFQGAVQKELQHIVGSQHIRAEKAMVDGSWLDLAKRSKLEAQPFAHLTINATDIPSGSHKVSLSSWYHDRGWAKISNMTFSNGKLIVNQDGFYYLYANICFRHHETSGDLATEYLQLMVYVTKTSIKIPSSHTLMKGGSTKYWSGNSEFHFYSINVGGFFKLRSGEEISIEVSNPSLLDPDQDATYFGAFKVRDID
Description: Binding affinity to CM5 sensor chip-immobilized RANKL (unknown origin) by SPR analysis. Particulars: dose 0.98-31.25 µM. (In general: Surface plasmon resonance follows binding to a sensor surface in real time, without labels.)

This passage reports Activity results from ChEMBL document CHEMBL6120947, “Synthesis and Antiosteoporotic Characterization of Diselenyl Maleimides: Discovery of a Potent Agent for the Treatment of Osteoporosis by Targeting RANKL” (J Med Chem, 2024).

As for `O=C1C([Se]c2ccccc2)=C([Se]c2ccccc2)C(=O)N1Cc1ccccc1`, the Activity entry in data set [1] is “Non-toxic”; in data set [2], “Dose-dependent-effect”.
